# “Also recorded” adds a separate entry of the source. Where two headings read alike, the source gives them in different places.
# What was measured:
# [1] = test system: normal human keratinocytes transfected with 1α-OHase cDNA; test: [3H]thymidine incorporation of human keratinocytes transfected with 1α-OHase cDNA; format: cell-based
# Protocol: FIG. 6 depicts a graph showing the effect of 25(OH)D3 concentration on the proliferative activity of normal human keratinocytes transfected with 1α-OHase cDNA. Cultured human keratinocytes transfected with a vector containing the 1α-OHase cDNA as described were incubated with 25(OH)D3 at different concentrations (1 nM, 10 nM, 100 nM) for 18 hours. [^3H]thymidine incorporation was measured as described. ●-: [^3H]thymidine incorporation of cells not transfected (“Control”); ∘-∘: [^3H]thymidine incorporation of cells transfected with vector containing 1α-OHase cDNA (“1α-OHase transfection”).
# (F) Keratinocyte transfection. Keratinocytes were maintained in MCDB-153 medium. Cells in 24-well dishes at 50%-60% confluence were transfected with […] of 1α-OHase cDNA which had been subcloned into pCR3.1 vector (INVITROGEN). Empty vector was used as a control. For each transfection, 1.0 μg was diluted in 100 μl of medium containing 6-8 μl Plus Reagent. This mixture was incubated for 15 minutes at room temperature. […] [^3H]thymidine was added to the cultures and [^3H]thymidine incorporation into the DNA (interpreted as a measure of the DNA synthetic activity, i.e. proliferation of the cells) was measured as previously described (Chen, T. C., et al., J Nutr. Biochem. 4:49-57 (1993)). […]
# 1α-OHase [2] = biological target: T1, 1α-OHase (Homo sapiens, UniProt O15528); conditions: BPH cultures; clotrimazole 20 μM; 25(OH)D3 50 nM, [3H]-25(OH)D3, DPPD 10 μM, 2 h 37° C. (FIG. 5)
# T1 sequence (O15528 1-508): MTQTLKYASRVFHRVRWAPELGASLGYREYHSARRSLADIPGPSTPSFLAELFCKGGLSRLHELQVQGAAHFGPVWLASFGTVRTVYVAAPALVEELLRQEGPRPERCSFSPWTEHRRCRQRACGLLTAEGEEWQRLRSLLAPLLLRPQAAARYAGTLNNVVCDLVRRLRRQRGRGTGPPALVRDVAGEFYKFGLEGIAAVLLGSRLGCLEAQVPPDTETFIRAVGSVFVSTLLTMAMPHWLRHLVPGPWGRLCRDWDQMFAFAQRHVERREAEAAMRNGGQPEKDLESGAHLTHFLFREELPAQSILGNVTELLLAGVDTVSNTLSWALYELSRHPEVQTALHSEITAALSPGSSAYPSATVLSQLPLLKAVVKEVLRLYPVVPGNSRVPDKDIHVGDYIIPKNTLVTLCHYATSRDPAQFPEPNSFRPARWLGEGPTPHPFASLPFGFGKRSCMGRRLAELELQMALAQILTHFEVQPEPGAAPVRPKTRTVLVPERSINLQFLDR
# Protocol: (§1) In addition, 1α-OHase activity was determined by using a radioactive metabolite, [^3H]-25(OH)D, as substrate.
# Second passage of prostate cells derived from BPH cultures were incubated with nonradioactive 25(OH)D3 (50 nM), [^3H]-25(OH)D3 (0.91 μCi/nmol) and DPPD (10 μM) at 37° C. for two hours in the absence of clotrimazole (20 μM).
# 1α-OHase [3] = biological target: T1, 1α-OHase; conditions: normal human prostate cells; clotrimazole 20 μM; 25(OH)D3 50 nM, [3H]-25(OH)D3, DPPD 10 μM, 2 h 37° C. (FIG. 3)
# Protocol: as §1
# Second passage of normal human prostate cells incubated with nonradioactive 25(OH)D3 (50 nM), [^3H]-25(OH)D3 (0.91 μCi/nmol) and 1,2-dianilinoethane (DPPD) (10 μM) at 37° C. for two hours in the absence of clotrimazole (20 μM) is shown in FIG. 2.
# Second passage of normal human prostate cells were also incubated with nonradioactive 25(OH)D3 (50 nM), [^3H]-25(OH)D3 (0.91 μCi/nmol) and DPPD (10 μM) at 37° C. for two hours in the presence of clotrimazole (20 μM) in the presence of the cytochrome P450 inhibitor (clotrimazole).
# 1α-OHase [4] = biological target: T1, 1α-OHase; format: cell-based; design: two primary cultures of cells, NP96-5 and BPH96-11, derived from noncancerous human prostates; endogenous in cells; host or cells: primary human prostatic epithelial cultures NP96-5 (normal prostate) and BPH96-11 (BPH); conditions: Human keratinocytes; clotrimazole 20 μM; 25(OH)D3 50 nM, 2 h 37° C.
# 1α-OHase [5] = biological target: T1, 1α-OHase; conditions: PC-3
# Protocol: (§2) (A) Cell Lines. DU 145, PC-3, and LNCaP cell lines were obtained from the American Type Culture Collection, Rockville, Md. All cell lines were tested and found to be free of Mycoplasma contamination.
# (§3) (B) Culture Conditions. Prostate cancer cell lines were cultured following several passages in vitro. Cells were routinely cultured in complete medium (RPMI 1640 medium supplemented with fetal bovine serum (10%., HyClone Labs, Logan Utah) and gentamicin (10 μg/ml, Life Technologies, Inc., Gaithersburg, Md.)). Cells were seeded in 35 mm culture dishes (Corning-Costar, Cambridge, Mass.) at 1×10^5 cells/dish in complete medium. Medium was changed to a serum-free medium (RPMI 1640 containing insulin (10 μg/ml), transferrin ( 10 μg/ml) and selenous acid (1 ng/ml)) 24 hours before adding 25(OH)D3.
# 1α-OHase [6] = biological target: T1, 1α-OHase; conditions: LNCaP; clotrimazole 20 μM; 25(OH)D3 50 nM, 2 h 37° C.
# Protocol: as §2, §3
# 1α-OHase [7] = biological target: T1, 1α-OHase; conditions: NP96-5; clotrimazole 20 μM; 25(OH)D3 50 nM, 2 h 37° C.
# From the text: (§4) Primary cultures of human prostatic epithelial cells were established and characterized as described by Lokeshwar et al., Cancer Res. 53:4493-4498 (1993). Prostatic epithelial cells cultured in a serum-free defined medium (Mammary Epithelial Growth Medium (MEGM), Clontech, San Diego, Calif.) express luminal epithelium specific cytokeratins (cytokeratins 8 and 18) as detected immunohistochemically using an anti-cytokeratin antibody, CAM 5.2 (Becton-Dickinson, Mountain View, Calif.). The serum-free medium contains MCDF170 supplemented with Epidermal Growth Factor, 25 ng/ml, hydrocortisone, 0.5 μg/ml, ethanolamine, 1×10^−4, insulin, 5 μg/ml, transferrin, 5 μg/ml, and whole bovine pituitary extract, 70 μg/ml.
# (§5) Prostatic cells used were at their first passage in vitro and were cultured in the serum-free RPMI medium during incubation with vitamin D metabolites. […] Histological examination of adjacent tissue sections taken from specimens used for cultures confirmed their identity as normal or BPH cultures.
# 1α-OHase [8] = biological target: T1, 1α-OHase; conditions: DU 145
# Protocol: as §2, §3
# 1α-OHase [9] = biological target: T1, 1α-OHase; conditions: BPH96-11; clotrimazole 20 μM; 25(OH)D3 50 nM, 2 h 37° C.
# From the text: as §4, §5
# [10] = test system: human prostate cancer cells; conditions: cited from earlier work
# human bone cells = human bone cells (extra-renal site); cited from earlier work
# [11] = test system: human T-lymphotrophic virus-transformed lymphocytes; conditions: cited from earlier work
# [12] = test system: renal proximal tubular cells; conditions: primary cultures of renal proximal tubular cells; cited from earlier work
# [13] = test system: HEP 62 hepatoma cell line; conditions: cited from earlier work
# [14] = clotrimazole 20 μM, 25(OH)D3 50 nM, 2 h 37° C.
compound,measurement,setting,value
"C=C1CC[C@H](O)C/C1=C/C=C1\CCC[C@]2(C)[C@@H]([C@H](C)CCCC(C)(C)O)CC[C@@H]12 [25(OH)D, 25-hydroxyvitamin D]",proliferative activity of transfected vs non-transfected control keratinocytes,"[1]; 25(OH)D 10^−9 to 10^−7M, 18 hours (FIG. 6)",more marked decrease in proliferative activity
same,reduction in the proliferative activity ([3H]thymidine incorporation),"[1]; 25(OH)D at 10^−7 M, 18 hours, cells transfected with 1α-OHase gene compared to untransfected keratinocytes, p<0.01",53.7%
Clc1ccccc1C(c1ccccc1)(c1ccccc1)n1ccnc1 [clotrimazole],"1,25(OH)2D metabolite level in the presence of clotrimazole (tritium activity, HPLC)",1α-OHase [2],less than 200 cpm
same,"1,25(OH)2D synthesis in the presence of clotrimazole (HPLC)",1α-OHase [3],undetectable
same,"1,25(OH)2D Produced, P-450 Inhibitor Present",1α-OHase [4],completely inhibited; also recorded: undetectable
same,"inhibition of 1,25(OH)2D production",1α-OHase [5]; clotrimazole,100%
same,"1,25(OH)2D Produced, P-450 Inhibitor Present",1α-OHase [5]; [14],completely inhibited; also recorded: undetectable
same,"1,25(OH)2D Produced, P-450 Inhibitor Present",1α-OHase [6],undetectable
same,"1,25(OH)2D Produced, P-450 Inhibitor Present",1α-OHase [7],completely inhibited; also recorded: undetectable
same,"inhibition of 1,25(OH)2D production",1α-OHase [8]; clotrimazole,100%
same,"1,25(OH)2D Produced, P-450 Inhibitor Present",1α-OHase [8]; [14],completely inhibited; also recorded: undetectable
same,"1,25(OH)2D Produced, P-450 Inhibitor Present",1α-OHase [9],completely inhibited; also recorded: undetectable
"C=C1/C(=C\C=C2/CCC[C@]3(C)[C@@H]([C@H](C)CCCC(C)(C)O)CC[C@@H]23)C[C@@H](O)C[C@@H]1O [1,25(OH)2D, 1,25-dihydroxyvitamin D]","Level of 1,25(OH)2D that can significantly inhibit invasiveness",[10]; artificial basement membrane composed of human amnions,≥ 10^−11 M
same,effect on invasiveness of DU 145 cells,"[10]; physiological levels of 1,25(OH)2D, DU 145, correlated with decrease in secreted type IV collagenase (MMP-2 and MMP-9)",significantly inhibit the invasiveness
same,"1,25(OH)2D produced",human bone cells,0.068 pmol/mg protein/hr
same,"1,25(OH)2D produced",[11],1.6 pmol/mg protein/hr
same,1α-OHase enzyme activity,[12],5.3-5.6 pmol/hr/mg protein
same,"1,25(OH)2D produced",[13],2.3 pmol/mg protein/hr

# — patent US20040087559A1, “Methods for prevention and treatment of cancer” (priority 1999, published 2004)
